In PubChem BioAssay AID2060502 (Molecular Pharmacology Branch, DTP, NCI, 2025):
Blank lines part the entries; values can stand above or below the compound they belong to.

Tested on: 885724-159-R-J1-PDC complex spheroid viability
Assay: Anticancer human tumor 885724-159-R-J1-PDC patient-derived pancreatic adenocarcinoma cell line growth inhibition [GQUAD]
Settings: for IC50: curve of first compound; for viability, T/C: stronger effect = lower value
From the text: DNA G-quadruplex Stabilizer Agents in Combinations in Complex Spheroids
A high-throughput screen of multi-cell type tumor spheroids was designed to identify active combinations of DNA G-quadruplex stabilizer agents and targeted small molecules. Complex spheroids include a stromal component modeled by human endothelial cells (HUVEC) and fibroblasts modeled by human mesenchymal stem cells (MSCs). The concentration ranges selected for each drug and investigational agent were based upon clinically achievable concentrations if the clinical Cmax of the agent was known.
Compounds. The drugs and investigational agents: pidnarulex (CX-5461; NSC782164), APTO-253 (NSC789042), BRACO-19 (NSC847499), peposertib (NSC802822), ceralasertib (NSC780249), elimusertib (NSC800525), camonsertib (NSC841442), AZD-1390 (NSC803789), olaparib (NSC753686), talazoparib (NSC767125), ART-558 (NSC835418), sotorasib (NSC818433), MRTX-1133 (NSC836407), SN-38 (NSC673596), topotecan (NSC609699), etoposide (NSC141540), doxorubicin (NSC123127), gemcitabine (NSC613327), 5-fluorouracil (NSC19893), paclitaxel (NSC125973), vemurafenib (NSC761431), panobinostat (NSC761190), R-306465 (JNJ-16241199; NSC773264), adavosertib (NSC754352), TP-3654 (NSC805149), carboplatin (NSC241240), KSQ-4279 (NSC840948), and staurosporine (NSC755774) were obtained from the National Cancer Institute (NCI) Developmental Therapeutics Program Chemical Repository (34). The FDA-approved anticancer drug set is available from the NCI Developmental Therapeutics Program. […] The stock solutions were prepared in dimethyl sulfoxide (DMSO, Sigma-Aldrich, St. Louis, MO, cat. D2650) at 800-fold the tested concentration and stored at -70 degrees C prior to their use. All drugs and investigational agents were tested over a range starting from a high concentration at or near the clinical Cmax and decreasing in half-log increments. If the clinical Cmax for an agent had not been determined, the highest concentration tested was 10 microM.
2.3 Cell Culture. All cells were maintained in an incubator at 37 degrees C and 5% CO2 with 95% humidity. The PDC lines were cultured according to standard operating procedures established by the NCI PDMR. All PDCs were thawed and cultured in Matrigel-coated flasks prepared with a working solution of 1X Ham's F-12 nutrient mix, without supplementation (Invitrogen, cat. 11765054), 100 U/mL penicillin-streptomycin (Invitrogen, cat. 15140122), and 2.5% Matrigel (Corning Inc., cat. 354248) for the first three passages. The 857933-349-R-J2-PDC line was cultured in 6C/Colon 1B media, which includes advanced DMEM/F-12 (Thermo Fisher Scientific, cat. 12634028), 10 mM HEPES (Thermo Fisher Scientific, cat. 15630080), 1X GlutaMAX supplement (Thermo Fisher Scientific, cat. 35050061), 0.1 mg/mL primocin (InvivoGen, cat. ant-pm-2), 10% defined fetal bovine serum, heat inactivated (HyClone Laboratories Inc., cat. SH30070.03HI), 50% L-WRN conditioned media (ATCC, cat. CRL-3276), 1.25 mM N-Acetyl-L-cysteine (Sigma-Aldrich, cat. A9165), 10 mM nicotinamide (Sigma-Aldrich, cat. N0636), 1X B-27 supplement (Thermo Fisher Scientific, cat. 17504044), 1X N-2 supplement (Thermo Fisher Scientific, cat. 17502048), 10 microM Y-27632 dihydrochloride (Tocris Bioscience, cat. 1254), and 50 ng/mL human EGF recombinant protein (Thermo Fisher Scientific, cat. PHG0311). The 485176-168-R4-J1-PDC line was cultured in Panc media, which includes all 6C/Colon 1B media components plus 100 ng/mL human FGF-10 (Thermo Fisher Scientific, cat. 100-26), 500 nM SB-431542 (Selleckchem, cat. S1067), and gastrin (Tocris, cat. 3006).
[…]

[1] = second compound 0.0316 µM, first compound 0.0316 µM
[2] = second compound 0.0316 µM, first compound 0.1 µM
[3] = second compound 0.0316 µM, first compound 0.316 µM
[4] = second compound 0.0316 µM, first compound 1 µM
[5] = second compound 0.0316 µM, first compound 3.16 µM
[6] = second compound 0.0316 µM, first compound 10 µM
[7] = second compound 0.1 µM, first compound 0.0316 µM
[8] = second compound 0.1 µM, first compound 0.1 µM
[9] = second compound 0.1 µM, first compound 0.316 µM
[10] = second compound 0.1 µM, first compound 1 µM
[11] = second compound 0.1 µM, first compound 3.16 µM
[12] = second compound 0.1 µM, first compound 10 µM
[13] = second compound 0.316 µM, first compound 0.0316 µM
[14] = second compound 0.316 µM, first compound 0.1 µM
[15] = second compound 0.316 µM, first compound 0.316 µM
[16] = second compound 0.316 µM, first compound 1 µM
[17] = second compound 0.316 µM, first compound 3.16 µM
[18] = second compound 0.316 µM, first compound 10 µM
[19] = second compound 1 µM, first compound 0.0316 µM
[20] = second compound 1 µM, first compound 0.1 µM
[21] = second compound 1 µM, first compound 0.316 µM
[22] = second compound 1 µM, first compound 1 µM
[23] = second compound 1 µM, first compound 3.16 µM
[24] = second compound 1 µM, first compound 10 µM
[25] = second compound 3.16 µM, first compound 0.0316 µM
[26] = second compound 3.16 µM, first compound 0.1 µM
[27] = second compound 3.16 µM, first compound 0.316 µM
[28] = second compound 3.16 µM, first compound 1 µM
[29] = second compound 3.16 µM, first compound 3.16 µM
[30] = second compound 3.16 µM, first compound 10 µM
[31] = second compound 10 µM, first compound 0.0316 µM
[32] = second compound 10 µM, first compound 0.1 µM
[33] = second compound 10 µM, first compound 0.316 µM
[34] = second compound 10 µM, first compound 1 µM
[35] = second compound 10 µM, first compound 3.16 µM
[36] = second compound 10 µM, first compound 10 µM
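Also: spheroids exposed to agents for seven days before readout.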
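For viability, T/C in this document: percent of vehicle control viability where 100% = DMSO wells.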

Structure (SMILES): CC(C)(O)C1CCC(Nc2ccc3ncc(-c4cccc(C(F)(F)F)c4)n3n2)CC1 (stereo unspecified) + Cc1[nH]c2ccc(F)cc2c1-c1nc2c3cccnc3c3ncccc3c2[nH]1
- IC50 (second compound 0.0316 µM): 2500 nM
- IC50 (second compound 0.1 µM): 2760 nM
- IC50 (second compound 0.316 µM): 1520 nM
- IC50 (second compound 1 µM): 538 nM
- IC50 (second compound 3.16 µM): < 31.6 nM
- IC50 (second compound 10 µM): 1030 nM
- viability, T/C [1]: 96.3%
- viability, T/C [2]: 93.1%
- viability, T/C [3]: 83.1%
- viability, T/C [4]: 84.6%
- viability, T/C [5]: 37.3%
- viability, T/C [6]: 44.7%
- viability, T/C [7]: 97.1%
- viability, T/C [8]: 91.6%
- viability, T/C [9]: 77.4%
- viability, T/C [10]: 72.1%
- viability, T/C [11]: 41.4%
- viability, T/C [12]: 41.2%
- viability, T/C [13]: 90.5%
- viability, T/C [14]: 78.3%
- viability, T/C [15]: 82.8%
- viability, T/C [16]: 55.5%
- viability, T/C [17]: 40.7%
- viability, T/C [18]: 38.3%
- viability, T/C [19]: 77%
- viability, T/C [20]: 58.2%
- viability, T/C [21]: 57.2%
- viability, T/C [22]: 47.6%
- viability, T/C [23]: 33.8%
- viability, T/C [24]: 29.6%
- viability, T/C [25]: 19.3%
- viability, T/C [26]: 8.78%
- viability, T/C [27]: 9.83%
- viability, T/C [28]: 9.8%
- viability, T/C [29]: 7.07%
- viability, T/C [30]: 7.05%
- viability, T/C [31]: 67.9%
- viability, T/C [32]: 59%
- viability, T/C [33]: 57.7%
- viability, T/C [34]: 50.5%
- viability, T/C [35]: 28.2%
- viability, T/C [36]: 35.4%

- IC50 (second compound 0.0316 µM): 549 nM
- IC50 (second compound 0.1 µM): 450 nM
- IC50 (second compound 0.316 µM): 437 nM
- IC50 (second compound 1 µM): 434 nM
- IC50 (second compound 3.16 µM): 182 nM
- IC50 (second compound 10 µM): 183 nM
Structure (SMILES): O=C(NO)c1cnc(N2CCN(S(=O)(=O)c3ccc4ccccc4c3)CC2)nc1 + Cc1cnc(CNC(=O)c2c(=O)c3ccc(N4CCCN(C)CC4)nc3n3c2sc2ccccc23)cn1
- viability, T/C [1]: 77.4%
- viability, T/C [2]: 83.3%
- viability, T/C [3]: 65.4%
- viability, T/C [4]: 31.2%
- viability, T/C [5]: 13.7%
- viability, T/C [6]: 0.25%
- viability, T/C [7]: 117%
- viability, T/C [8]: 79.7%
- viability, T/C [9]: 56.6%
- viability, T/C [10]: 40%
- viability, T/C [11]: 10.4%
- viability, T/C [12]: 0.28%
- viability, T/C [13]: 102%
- viability, T/C [14]: 78.9%
- viability, T/C [15]: 63.3%
- viability, T/C [16]: 26.1%
- viability, T/C [17]: 12.7%
- viability, T/C [18]: 0.32%
- viability, T/C [19]: 80.5%
- viability, T/C [20]: 70.4%
- viability, T/C [21]: 60%
- viability, T/C [22]: 28.4%
- viability, T/C [23]: 9.39%
- viability, T/C [24]: 0.18%
- viability, T/C [25]: 80.6%
- viability, T/C [26]: 59.6%
- viability, T/C [27]: 39.8%
- viability, T/C [28]: 23.7%
- viability, T/C [29]: 0.23%
- viability, T/C [30]: 0.18%
- viability, T/C [31]: 60.2%
- viability, T/C [32]: 58.5%
- viability, T/C [33]: 42%
- viability, T/C [34]: 20.5%
- viability, T/C [35]: 0.26%
- viability, T/C [36]: 0.22%

- IC50 (second compound 0.0316 µM): > 10000 nM
- IC50 (second compound 0.1 µM): > 10000 nM
- IC50 (second compound 0.316 µM): > 10000 nM
- IC50 (second compound 1 µM): > 10000 nM
- IC50 (second compound 3.16 µM): > 10000 nM
- IC50 (second compound 10 µM): > 10000 nM
Structure (SMILES): O=c1[nH]cc(F)c(=O)[nH]1 + Cc1cnc(CNC(=O)c2c(=O)c3ccc(N4CCCN(C)CC4)nc3n3c2sc2ccccc23)cn1
- viability, T/C [1]: 108%
- viability, T/C [2]: 107%
- viability, T/C [3]: 116%
- viability, T/C [4]: 118%
- viability, T/C [5]: 87.1%
- viability, T/C [6]: 88.8%
- viability, T/C [7]: 103%
- viability, T/C [8]: 107%
- viability, T/C [9]: 112%
- viability, T/C [10]: 116%
- viability, T/C [11]: 92.1%
- viability, T/C [12]: 102%
- viability, T/C [13]: 99.2%
- viability, T/C [14]: 109%
- viability, T/C [15]: 91.5%
- viability, T/C [16]: 103%
- viability, T/C [17]: 96.4%
- viability, T/C [18]: 97.1%
- viability, T/C [19]: 84.2%
- viability, T/C [20]: 84.1%
- viability, T/C [21]: 100%
- viability, T/C [22]: 87.1%
- viability, T/C [23]: 86.2%
- viability, T/C [24]: 83%
- viability, T/C [25]: 78.2%
- viability, T/C [26]: 89.7%
- viability, T/C [27]: 90.5%
- viability, T/C [28]: 78.1%
- viability, T/C [29]: 83.8%
- viability, T/C [30]: 84.4%
- viability, T/C [31]: 81.7%
- viability, T/C [32]: 77%
- viability, T/C [33]: 74.8%
- viability, T/C [34]: 84%
- viability, T/C [35]: 77.8%
- viability, T/C [36]: 72.2%
